# Columns and labels:
# Aβ(1-40) aggregates [1] = molecular target: T1, Aβ(1-40) aggregates (Homo sapiens, UniProt P05067); assay: In vitro binding of [125I]-labelled compounds to Aβ aggregates (filtration, radioactivity on filter); details: [125I]-labelled compound; radioactivity remaining on filter in presence vs absence of Aβ aggregates
# T1 construct: The amyloid β protein (Human, 1-40) [HCl form]; purchased Peptide Institute, Inc
# Protocol: (§1) Aβ aggregates was dissolved in a buffer (pH 7.4) that contained 10 mM sodium phosphate and 1 mM EDTA, resulting in a concentration of 0.5 mg/ml. Thereafter, the obtained solution was incubated at 37° C. for 36 to 42 hours. A binding experiment was carried out using 12×75 mm borosilicate glass tubes. […] The obtained mixture was left at room temperature for 3 hours. Non-specific bond was calculated using nonradioactive compound 11 (1 μM). […] The radioactivity of a substance remaining in the filter used in filtration was measured with a γ counter. With regard to [^125I] compound 11, the Kd value thereof was calculated by the Scatchard analysis. In addition, using [^125I] compound 11 as a radioactive ligand, an inhibition experiment was carried out by the following method using the Aβ(1-40) aggregates and the Aβ(1-42) aggregates. […] The obtained mixture was left at room temperature for 3 hours. Non-specific bond was calculated using nonradioactive compound 11 (1 μM). The 50% inhibitory concentration was calculated using GraphPad Prism (GraphPad Software), and the inhibition constant (Ki value) was calculated according to the formula of Cheng-Prusoff, Ki=IC50/(1+[L]/Kd). In this formula, [L] represents the concentration of [^125I] compound 11, and Kd represents the dissociation constant of [^125I] compound 11 to the Aβ(1-40) aggregates and the Aβ(1-42) aggregates.
# Aβ(1-42) aggregates [2] = molecular target: T2, Aβ(1-42) aggregates (Homo sapiens, UniProt P05067); assay: Saturation experiment of [125I] compound 11 with Scatchard analysis, Aβ(1-42) aggregates; format: binding; details: read-out: dissociation equilibrium constant (Kd value)
# T2 construct: the amyloid β protein (Human, 1-42) [TFA form]; purchased Peptide Institute, Inc
# Protocol: as §1
# Aβ(1-40) aggregates [3] = molecular target: T1, Aβ(1-40) aggregates; assay: Inhibition experiment using [125I] compound 11 as radioactive ligand, Aβ(1-40) aggregates; format: binding; details: radioligand [125I] compound 11; Cheng-Prusoff; read-out: Inhibition constant (Ki, nM) Aβ(1-40)
# Protocol: as §1
# Aβ(1-42) aggregates [4] = molecular target: T2, Aβ(1-42) aggregates; assay: Inhibition experiment using [125I] compound 11 as radioactive ligand, Aβ(1-42) aggregates; format: binding; details: radioligand [125I] compound 11; Cheng-Prusoff; read-out: Inhibition constant (Ki, nM) Aβ(1-42)
# Protocol: as §1
# Aβ(1-40) aggregates [5] = molecular target: T1, Aβ(1-40) aggregates; assay: Saturation experiment of [125I] compound 11 with Scatchard analysis, Aβ(1-40) aggregates; format: binding; details: read-out: dissociation equilibrium constant (Kd value)
# Protocol: as §1
# [6] = test system: senile plaque amyloid, cerebrovascular amyloid and neurofibrillary degeneration in brain tissues of patient with Alzheimer's disease; assay: Binding experiment using brain tissues of patient with Alzheimer's disease (fluorescence microscopy of sections); design: species or system human; details: 100 nM, room temperature, 10 minutes; temporal lobe sections
# Protocol: Tissues at the temporal lobe site of the brain of a patient with Alzheimer's disease were fixed with formalin, and were then embedded in paraffin. A section with a thickness of 5 μm was prepared from the paraffin block, and the paraffin was then removed by an ordinary treatment with xylene and ethanol (Lippa, C. F., Nee, L. E., Mori, H & George-Hyslop, P. (1998) The Lancet 352:1117-1118). As the final stage, neutralization was carried out with a phosphate buffer. Thereafter, compounds 10, 11, 19, and 20 were reacted in a concentration of 100 nM at room temperature for 10 minutes. Thereafter, the reaction product was washed with a phosphate buffer three times, and then with 50% ethanol three time, so as to terminate the reaction. Thereafter, the resultant was dehydrated by treatments with alcohol and xylene, followed by embedding with Entellan(R) new. The bond of the above compound was confirmed by image observation with a CCD camera (M-3204C) included with a fluorescence microscope (Olympus BX50).
# [7] = Radioactivity distribution in mouse body after intravenous administration of radioiodine labeled forms; details: normal mice, intravenous, [125I]-labelled form
# Protocol: Thereafter, 100 μl (0.5 to 1 μCi) of each labeled form was intravenously administered to each group consisting of three to five 5-week-old ddY male mice (25 to 30 g). 2, 10, 30, and 60 minutes after the intravenous administration, such mice were decapitated, and blood was collected. Thereafter, organs were excised, and the weight and radioactivity thereof were then measured.
# T2 sequence (P05067 672-713 limits assumed): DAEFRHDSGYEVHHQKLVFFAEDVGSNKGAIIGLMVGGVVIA
# T1 sequence (P05067 672-711 limits assumed): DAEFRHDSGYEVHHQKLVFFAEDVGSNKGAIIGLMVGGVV
Structure (SMILES),bindability to the Aβ aggregates (Aβ(1-40) aggregates [1]),Ki (Aβ(1-40) aggregates [3]) [nM],Ki (Aβ(1-42) aggregates [4]) [nM],ability to transfer to the brain [7] [% ID/g],washing out / disappearance of radioactivity from the brain [7],rate of disappearance from the brain (rank among flavone derivatives) [7],"recognition of and binding to amyloid plaque, senile plaque having a neurodegenerative projection, cerebrovascular amyloid and neurofibrillary degeneration [6]",other results
"CN(C)c1ccc(-c2cc(=O)c3cc(I)ccc3o2)cc1 [compound 11, 6-iodo-4′-dimethylaminoflavone]",high bindability,13.2 ± 0.2,15.6 ± 2.4,,,,,Kd (Aβ(1-42) aggregates [2]): 17.6 ± 5.7 nM; Kd (Aβ(1-40) aggregates [5]): 12.3 ± 2.3 nM; bindability to senile plaque having a neurodegenerative projection and to neurofibrillary degeneration [6]: has bindability; binding to cerebrovascular amyloid [6]: specifically binds to cerebrovascular amyloid; binding to senile plaque [6]: specifically binds to senile plaque
"Nc1ccc(C=Cc2cc(=O)c3cc(I)ccc3o2)cc1 [compound 46, 6-iodo-4′-aminostyrylchromone]",high binding affinity,,,4.9,rapid disappearance of radioactivity,,,
"CNc1ccc(C=Cc2cc(=O)c3cc(I)ccc3o2)cc1 [compound 47, 6-iodo-4′-methylaminostyrylchromone]",high binding affinity,,,3.0,rapid disappearance of radioactivity,,,
"CN(C)c1ccc(C=Cc2cc(=O)c3cc(I)ccc3o2)cc1 [compound 48, 6-iodo-4′-dimethylaminostyrylchromone]",high binding affinity,,,,,,,ability to transfer to the brain (in words) [7]: low; radioactivity retention in the blood [7]: high radioactivity retention ability in the blood
"CNc1ccc(-c2cc(=O)c3cc(I)ccc3o2)cc1 [compound 10, 6-iodo-4′-methylaminoflavone]",high bindability,22.6 ± 3.4,30 ± 3.4,,,almost the same as that of [^125I] compound 11,"recognize amyloid plaque, senile plaque having a neurodegenerative projection, cerebrovascular amyloid and neurofibrillary degeneration, and bind thereto",
"COc1ccc(-c2cc(=O)c3cc(I)ccc3o2)cc1 [compound 19, 6-iodo-4′-methoxyflavone]",high bindability,29 ± 3.2,38.3 ± 8.1,,,fastest,"recognize amyloid plaque, senile plaque having a neurodegenerative projection, cerebrovascular amyloid and neurofibrillary degeneration, and bind thereto",
